{"source": "ChEMBL document CHEMBL2073812", "about": "“Functional analysis of candidate ABC transporter proteins for sitosterol transport” (Biochim Biophys Acta, 2002)", "key": {"[1]": {"biological_target": "ATP-dependent translocase ABCB1 (Homo sapiens, UniProt P08183)", "sequence (P08183 whole entry)": "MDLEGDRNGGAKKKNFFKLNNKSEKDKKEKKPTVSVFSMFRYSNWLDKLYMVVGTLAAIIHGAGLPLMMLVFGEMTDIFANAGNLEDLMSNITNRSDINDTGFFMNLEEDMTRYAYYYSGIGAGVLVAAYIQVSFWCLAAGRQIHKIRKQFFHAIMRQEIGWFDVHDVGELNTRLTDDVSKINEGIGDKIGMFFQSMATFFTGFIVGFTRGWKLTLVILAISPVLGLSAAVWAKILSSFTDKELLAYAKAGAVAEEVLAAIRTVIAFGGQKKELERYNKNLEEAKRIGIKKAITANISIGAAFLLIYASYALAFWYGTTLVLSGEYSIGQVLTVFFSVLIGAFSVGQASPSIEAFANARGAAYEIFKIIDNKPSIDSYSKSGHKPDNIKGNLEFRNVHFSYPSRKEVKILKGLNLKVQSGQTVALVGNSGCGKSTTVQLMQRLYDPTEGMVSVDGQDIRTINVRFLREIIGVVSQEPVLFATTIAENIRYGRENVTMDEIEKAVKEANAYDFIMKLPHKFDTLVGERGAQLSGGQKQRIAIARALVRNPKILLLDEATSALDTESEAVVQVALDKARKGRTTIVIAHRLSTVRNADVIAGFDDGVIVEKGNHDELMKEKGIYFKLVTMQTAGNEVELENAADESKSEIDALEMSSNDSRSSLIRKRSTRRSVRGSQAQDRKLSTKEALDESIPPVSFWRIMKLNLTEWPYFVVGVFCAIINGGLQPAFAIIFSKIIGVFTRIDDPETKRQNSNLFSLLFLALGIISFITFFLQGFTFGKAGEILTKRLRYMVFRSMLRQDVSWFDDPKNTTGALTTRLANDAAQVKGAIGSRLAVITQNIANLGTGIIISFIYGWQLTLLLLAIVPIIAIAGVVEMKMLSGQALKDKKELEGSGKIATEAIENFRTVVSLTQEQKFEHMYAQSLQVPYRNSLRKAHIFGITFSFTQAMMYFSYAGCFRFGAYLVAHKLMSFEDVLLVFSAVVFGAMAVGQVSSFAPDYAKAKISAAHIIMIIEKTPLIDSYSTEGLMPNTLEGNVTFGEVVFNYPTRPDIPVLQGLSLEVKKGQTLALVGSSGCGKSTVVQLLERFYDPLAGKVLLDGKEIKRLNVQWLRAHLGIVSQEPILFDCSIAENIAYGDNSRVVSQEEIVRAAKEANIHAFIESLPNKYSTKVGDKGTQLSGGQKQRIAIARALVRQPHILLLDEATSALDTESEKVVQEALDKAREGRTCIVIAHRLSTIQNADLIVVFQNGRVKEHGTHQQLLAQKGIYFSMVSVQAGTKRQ", "test": "TP_TRANSPORTER: Flow cytometry in MDR1-expressing NIH3T3 cells", "format": "functional, cell-based", "details": "mouse"}, "[2]": {"biological_target": "T1, Bile salt export pump (Rattus norvegicus, UniProt O70127)", "T1 sequence (O70127 whole entry)": "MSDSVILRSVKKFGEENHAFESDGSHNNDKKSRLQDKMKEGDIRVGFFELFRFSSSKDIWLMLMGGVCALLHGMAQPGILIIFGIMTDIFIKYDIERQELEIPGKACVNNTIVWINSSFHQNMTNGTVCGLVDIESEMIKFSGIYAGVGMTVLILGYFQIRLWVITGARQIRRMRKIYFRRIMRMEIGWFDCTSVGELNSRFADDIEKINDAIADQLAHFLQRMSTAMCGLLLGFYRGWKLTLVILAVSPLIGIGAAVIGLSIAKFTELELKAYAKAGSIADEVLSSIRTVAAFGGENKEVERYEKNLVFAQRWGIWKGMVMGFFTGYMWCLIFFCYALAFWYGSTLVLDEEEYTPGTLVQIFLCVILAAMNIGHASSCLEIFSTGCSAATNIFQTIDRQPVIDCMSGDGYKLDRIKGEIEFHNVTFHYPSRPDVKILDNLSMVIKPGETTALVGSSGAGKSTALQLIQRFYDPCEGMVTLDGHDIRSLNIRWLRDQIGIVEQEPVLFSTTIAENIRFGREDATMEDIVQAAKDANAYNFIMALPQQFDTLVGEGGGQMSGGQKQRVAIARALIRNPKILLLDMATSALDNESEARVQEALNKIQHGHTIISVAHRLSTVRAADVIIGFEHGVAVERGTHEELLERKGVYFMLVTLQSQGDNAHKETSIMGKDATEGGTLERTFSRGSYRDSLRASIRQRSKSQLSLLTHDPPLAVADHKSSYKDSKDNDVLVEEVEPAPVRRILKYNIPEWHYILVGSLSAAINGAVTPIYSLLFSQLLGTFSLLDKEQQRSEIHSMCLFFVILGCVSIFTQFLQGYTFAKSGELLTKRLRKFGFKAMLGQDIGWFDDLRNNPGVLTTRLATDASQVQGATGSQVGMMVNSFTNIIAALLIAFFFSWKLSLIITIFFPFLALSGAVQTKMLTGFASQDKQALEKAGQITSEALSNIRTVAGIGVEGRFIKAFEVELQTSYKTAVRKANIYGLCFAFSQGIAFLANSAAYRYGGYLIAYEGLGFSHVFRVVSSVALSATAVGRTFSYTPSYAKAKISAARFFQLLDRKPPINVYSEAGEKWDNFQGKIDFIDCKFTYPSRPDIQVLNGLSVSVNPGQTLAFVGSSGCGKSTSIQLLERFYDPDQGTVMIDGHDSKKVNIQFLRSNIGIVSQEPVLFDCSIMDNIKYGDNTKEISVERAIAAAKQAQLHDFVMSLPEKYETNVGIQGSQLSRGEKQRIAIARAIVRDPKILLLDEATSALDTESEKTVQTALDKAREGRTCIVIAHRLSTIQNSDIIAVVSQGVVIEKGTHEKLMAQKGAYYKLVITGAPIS", "test": "TP_TRANSPORTER: inhibition of taurocholate uptake (taurocholate: 2 uM, beta-sitosterol: 10 uM) in membrane vesicles of Bsep-expressing […] cells", "format": "functional, cell membranes, Membrane vesicle", "details": "sf9, 10 µM"}, "[3]": {"biological_target": "T2, Broad substrate specificity ATP-binding cassette transporter ABCG2 (Mus musculus, UniProt Q7TMS5)", "T2 sequence (Q7TMS5 whole entry)": "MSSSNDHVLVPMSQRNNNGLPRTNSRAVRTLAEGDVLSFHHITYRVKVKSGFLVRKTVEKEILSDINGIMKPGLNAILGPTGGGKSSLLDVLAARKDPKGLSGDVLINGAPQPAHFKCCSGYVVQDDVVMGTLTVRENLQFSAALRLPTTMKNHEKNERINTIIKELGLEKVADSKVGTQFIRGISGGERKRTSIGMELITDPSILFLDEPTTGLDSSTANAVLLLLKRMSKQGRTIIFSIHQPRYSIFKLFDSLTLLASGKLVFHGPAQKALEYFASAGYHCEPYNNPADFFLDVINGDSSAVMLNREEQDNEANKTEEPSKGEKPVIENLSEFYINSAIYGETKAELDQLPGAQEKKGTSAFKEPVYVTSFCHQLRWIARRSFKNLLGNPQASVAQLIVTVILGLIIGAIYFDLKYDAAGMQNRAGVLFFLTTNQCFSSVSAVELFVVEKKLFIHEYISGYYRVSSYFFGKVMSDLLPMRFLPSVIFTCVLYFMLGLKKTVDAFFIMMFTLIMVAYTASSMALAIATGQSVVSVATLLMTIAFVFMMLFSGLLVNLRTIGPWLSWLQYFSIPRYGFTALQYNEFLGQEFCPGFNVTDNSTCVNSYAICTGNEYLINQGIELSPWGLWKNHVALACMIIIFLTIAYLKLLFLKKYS", "test": "TP_TRANSPORTER: Flow cytometry in lymphocytes from Mdr1a/b-/- mice", "format": "functional, cell-based", "details": "lymphocyte"}, "[4]": {"biological_target": "Multidrug resistance-associated protein 1 (Mus musculus, UniProt O35379)", "sequence (O35379 whole entry)": "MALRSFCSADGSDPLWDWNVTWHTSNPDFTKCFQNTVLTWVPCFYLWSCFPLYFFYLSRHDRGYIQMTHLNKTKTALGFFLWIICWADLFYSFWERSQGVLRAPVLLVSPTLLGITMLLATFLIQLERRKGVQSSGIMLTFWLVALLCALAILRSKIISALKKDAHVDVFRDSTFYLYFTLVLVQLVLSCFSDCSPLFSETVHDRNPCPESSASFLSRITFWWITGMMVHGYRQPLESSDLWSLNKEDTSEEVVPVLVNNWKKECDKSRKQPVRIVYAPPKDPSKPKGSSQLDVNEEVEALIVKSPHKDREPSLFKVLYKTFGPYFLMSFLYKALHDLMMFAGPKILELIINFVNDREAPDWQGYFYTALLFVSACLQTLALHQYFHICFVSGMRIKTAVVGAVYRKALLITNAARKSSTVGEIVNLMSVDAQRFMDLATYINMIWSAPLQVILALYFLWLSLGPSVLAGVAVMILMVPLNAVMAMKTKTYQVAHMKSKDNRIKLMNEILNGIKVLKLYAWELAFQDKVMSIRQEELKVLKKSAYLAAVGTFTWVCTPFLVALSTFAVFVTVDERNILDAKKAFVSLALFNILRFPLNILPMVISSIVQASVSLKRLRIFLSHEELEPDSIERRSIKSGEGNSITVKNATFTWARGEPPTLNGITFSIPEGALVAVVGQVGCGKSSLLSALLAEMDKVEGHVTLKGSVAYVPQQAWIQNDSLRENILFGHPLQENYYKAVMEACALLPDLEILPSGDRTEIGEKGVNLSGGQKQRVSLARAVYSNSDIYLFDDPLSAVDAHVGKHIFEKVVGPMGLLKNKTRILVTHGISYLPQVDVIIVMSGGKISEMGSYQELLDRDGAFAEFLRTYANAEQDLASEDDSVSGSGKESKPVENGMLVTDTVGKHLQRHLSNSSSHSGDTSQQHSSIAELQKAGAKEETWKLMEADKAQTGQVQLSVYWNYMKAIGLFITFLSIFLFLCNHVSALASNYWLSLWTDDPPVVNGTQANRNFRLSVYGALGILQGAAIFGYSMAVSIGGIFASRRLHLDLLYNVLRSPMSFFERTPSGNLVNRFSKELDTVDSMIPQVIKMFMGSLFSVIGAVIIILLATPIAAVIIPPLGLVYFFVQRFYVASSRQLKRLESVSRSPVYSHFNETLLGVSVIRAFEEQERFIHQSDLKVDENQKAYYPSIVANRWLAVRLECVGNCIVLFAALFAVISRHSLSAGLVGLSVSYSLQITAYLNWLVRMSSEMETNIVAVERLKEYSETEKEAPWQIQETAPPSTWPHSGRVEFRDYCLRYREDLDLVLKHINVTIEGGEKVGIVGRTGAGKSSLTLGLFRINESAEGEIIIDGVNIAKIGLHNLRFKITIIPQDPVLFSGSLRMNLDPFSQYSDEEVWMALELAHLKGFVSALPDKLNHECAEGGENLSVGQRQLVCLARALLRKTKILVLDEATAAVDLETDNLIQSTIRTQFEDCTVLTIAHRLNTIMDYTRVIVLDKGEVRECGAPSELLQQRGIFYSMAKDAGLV", "test": "TP_TRANSPORTER: Flow cytometry in lymphocytes from Mdr1a/b(-/)- mice", "format": "functional", "details": "lymphocyte"}}}
{"smiles": "CC[C@H](CC[C@@H](C)[C@H]1CC[C@H]2[C@@H]3CC=C4C[C@@H](O)CC[C@]4(C)[C@H]3CC[C@]12C)C(C)C", "note": "[BETA-SITOSTEROL]", "values": [{"measurement": "Activity", "setting": "[1]", "result": "is not a substrate [-]"}, {"measurement": "Activity", "setting": "[2]", "result": "is not an inhibitor [-]"}, {"measurement": "Activity", "setting": "[3]", "result": "is not a substrate [-]"}, {"measurement": "Activity", "setting": "[4]", "result": "is not a substrate [-]"}]}
